Assay results as given in patent US20260347364A1, “PYRAZOLO[4,3-F]QUINAZOLINE DERIVATIVES AS MODULATORS OF G12D MUTANT KRAS USEFUL FOR THE TREATMENT OF CANCER” (JAZZ PHARMACEUTICALS IRELAND LTD., priority 2023, published 2026).

Columns and labels:
KRAS G12D = target: T1, KRAS G12D (Homo sapiens, UniProt P01116, G12D); assay: HTRF nucleotide exchange assay, KRAS G12D; assay type: biochemical; settings: HTRF nucleotide exchange assay (NEA), class symbols
T1 construct: aa1-188 KRAS WT, HRAS WT, NRAS WT, or KRAS containing the G12D
T1 sequence (P01116 1-188 isoform P01116-2 G12D): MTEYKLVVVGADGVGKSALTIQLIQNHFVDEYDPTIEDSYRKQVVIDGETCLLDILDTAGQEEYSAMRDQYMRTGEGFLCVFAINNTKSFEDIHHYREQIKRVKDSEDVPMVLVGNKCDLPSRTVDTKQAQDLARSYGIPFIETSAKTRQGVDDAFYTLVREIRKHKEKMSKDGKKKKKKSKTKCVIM

KRAS WT = target: T2, KRAS WT (Homo sapiens, UniProt P01116); assay: HTRF nucleotide exchange assay, KRAS WT; assay type: biochemical; settings: class symbols; for IC50: HTRF nucleotide exchange assay (NEA)
T2 construct: aa1-188 KRAS WT
T2 sequence (P01116 1-188 isoform P01116-2): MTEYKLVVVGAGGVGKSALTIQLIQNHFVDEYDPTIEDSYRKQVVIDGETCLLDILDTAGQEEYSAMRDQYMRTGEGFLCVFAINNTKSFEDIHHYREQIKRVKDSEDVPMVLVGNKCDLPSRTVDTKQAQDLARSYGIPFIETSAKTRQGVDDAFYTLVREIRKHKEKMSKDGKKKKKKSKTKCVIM

| Structure (SMILES) | IC50 (KRAS G12D) [nM] | IC50 (KRAS WT) [nM] | KRAS^WT NEA (KRAS WT) |
| --- | --- | --- | --- |
| CCc1c(F)ccc2cc(O)cc(-c3c(F)c4nc(OCC5(CN(C)CC(F)(F)F)CC5)nc(N5CCOCC(C)(O)C5)c4c4cn(C)nc34)c12 (centres unmarked) [Example 192, 4-[4-(8-ethyl-7-fluoro-3-hydroxy-1-naphthyl)-5-fluoro-2-methyl-7-[[1-[[methyl(2,2,2-trifluoroethyl)amino]methyl]cyclopropyl]methoxy]pyrazolo[4,3-f]quinazolin-9-yl]-6-methyl-1,4-oxazepan-6-ol] | 100 to 10000 |  | D (<49% inhibition at 10 μM) |
| CCc1c(F)ccc2cc(O)cc(-c3c(F)c4nc(OCC5(CN6CC[C@@H](F)C6)CC5)nc(N5CCOCC(C)(O)C5)c4c4cn(C)nc34)c12 (stereo partly drawn) [Example 193, 4-[4-(8-ethyl-7-fluoro-3-hydroxy-1-naphthyl)-5-fluoro-2-methyl-7-[[1-[[(3R)-3-fluoropyrrolidin-1-yl]methyl]cyclopropyl]methoxy]pyrazolo[4,3-f]quinazolin-9-yl]-6-methyl-1,4-oxazepan-6-ol] | ≤ 10 | ≤ 10 |  |
| CCc1c(F)ccc2cc(O)cc(-c3c(F)c4nc(OC[C@@]56CCCN5C[C@H](F)C6)nc(N5CCCn6nc(C(=O)N7CCOCC7)cc6C5)c4c4cn(C)nc34)c12 [Example 195, [5-[4-(8-ethyl-7-fluoro-3-hydroxy-1-naphthyl)-5-fluoro-7-[[(2R,8S)-2-fluoro-1,2,3,5,6,7-hexahydropyrrolizin-8-yl]methoxy]-2-methyl-pyrazolo[4,3-f]quinazolin-9-yl]-4,6,7,8-tetrahydropyrazolo[1,5-a][1,4]diazepin-2-yl]-morpholino-methanone] | ≤ 10 | ≤ 10 |  |
| CCNC(=O)c1cc2n(n1)CCCN(c1nc(OC[C@@]34CCCN3C[C@H](F)C4)nc3c(F)c(-c4cc(O)cc5ccc(F)c(CC)c45)c4nn(C)cc4c13)C2 [Example 196, N-ethyl-5-[4-(8-ethyl-7-fluoro-3-hydroxy-1-naphthyl)-5-fluoro-7-[[(2R,8S)-2-fluoro-1,2,3,5,6,7-hexahydropyrrolizin-8-yl]methoxy]-2-methyl-pyrazolo[4,3-f]quinazolin-9-yl]-4,6,7,8-tetrahydropyrazolo[1,5-a][1,4]diazepine-2-carboxamide] | ≤ 10 | ≤ 10 |  |
| CCc1c(F)ccc2cc(O)cc(-c3cc4nc(OC[C@@]56CCCN5C[C@H](F)C6)nc(N5CCOC6(COC6)C5)c4c4cn(C)nc34)c12 [Example 199, 4-[9-(2,5-dioxa-8-azaspiro[3.5]nonan-8-yl)-2-methyl-7-[[(2R,8S)-2-fluoro-1,2,3,5,6,7-hexahydropyrrolizin-8-yl]methoxy]pyrazolo[4,3-f]quinazolin-4-yl]-5-ethyl-6-fluoro-naphthalen-2-ol] | 10 to 100 | 10 to 100 |  |
| CCc1c(F)ccc2cc(O)cc(-c3c(F)c4nc(OCC5(CN6CCCC6)CC5)nc(N5CCC[C@@](C)(O)C5)c4c4cn(C)nc34)c12 [Example 202, (3R)-1-[4-(8-ethyl-7-fluoro-3-hydroxy-1-naphthyl)-5-fluoro-2-methyl-7-[[1-(pyrrolidin-1-ylmethyl)cyclopropyl]methoxy]pyrazolo[4,3-f]quinazolin-9-yl]-3-methyl-piperidin-3-ol] | ≤ 10 | ≤ 10 |  |
| CCc1c(F)ccc2cc(O)cc(-c3c(F)c4nc(OCC56CCCN5CCC6)nc(N5CCC[C@@](C)(O)C5)c4c4cn(C)nc34)c12 [Example 203, (3R)-1-[4-(8-ethyl-7-fluoro-3-hydroxy-1-naphthyl)-5-fluoro-7-(1,2,3,5,6,7-hexahydropyrrolizin-8-ylmethoxy)-2-methyl-pyrazolo[4,3-f]quinazolin-9-yl]-3-methyl-piperidin-3-ol] | ≤ 10 | ≤ 10 |  |
| CCc1c(F)ccc2cc(O)cc(-c3c(C)c4nc(OCC5(CN(C)C)CC5)nc(N5CCC[C@@](C)(O)C5)c4c4cn(C)nc34)c12 [Example 204, (3R)-1-[7-[[1-[(dimethylamino)methyl]cyclopropyl]methoxy]-4-(8-ethyl-7-fluoro-3-hydroxy-1-naphthyl)-2,5-dimethyl-pyrazolo[4,3-f]quinazolin-9-yl]-3-methyl-piperidin-3-ol] | ≤ 10 | ≤ 10 |  |
| CCc1c(F)ccc2cc(O)cc(-c3c(C)c4nc(OCC56CCCN5CCC6)nc(N5CCC[C@@](C)(O)C5)c4c4cn(C)nc34)c12 [Example 205, (3R)-1-[4-(8-ethyl-7-fluoro-3-hydroxy-1-naphthyl)-7-(1,2,3,5,6,7-hexahydropyrrolizin-8-ylmethoxy)-2,5-dimethyl-pyrazolo[4,3-f]quinazolin-9-yl]-3-methyl-piperidin-3-ol] | ≤ 10 | ≤ 10 |  |
| CCc1c(F)ccc2cc(O)cc(-c3c(F)c4nc(OCC5(CF)COC5)nc(N5CCCn6nc(C(=O)N(C)C)cc6C5)c4c4cn(C)nc34)c12 [Example 206, 5-[4-(8-ethyl-7-fluoro-3-hydroxy-1-naphthyl)-5-fluoro-7-[[3-(fluoromethyl)oxetan-3-yl]methoxy]-2-methyl-pyrazolo[4,3-f]quinazolin-9-yl]-N,N-dimethyl-4,6,7,8-tetrahydropyrazolo[1,5-a][1,4]diazepine-2-carboxamide] | ≤ 10 | 10 to 100 |  |
| CCc1c(F)ccc2cc(O)cc(-c3c(F)c4nc(OCC5(C#N)CCOC5)nc(N5CCCn6nc(C(=O)N(C)C)cc6C5)c4c4cn(C)nc34)c12 (centres unmarked) [Example 207, 5-[7-[(3-cyanotetrahydrofuran-3-yl)methoxy]-4-(8-ethyl-7-fluoro-3-hydroxy-1-naphthyl)-5-fluoro-2-methyl-pyrazolo[4,3-f]quinazolin-9-yl]-N,N-dimethyl-4,6,7,8-tetrahydropyrazolo[1,5-a][1,4]diazepine-2-carboxamide] | ≤ 10 | 10 to 100 |  |
| CCc1c(F)ccc2cc(O)cc(-c3c(F)c4nc(OCC56COC(COC)(C5)C6)nc(N5CCCn6nc(C(=O)N(C)C)cc6C5)c4c4cn(C)nc34)c12 [Example 208, 5-[4-(8-ethyl-7-fluoro-3-hydroxy-1-naphthyl)-5-fluoro-7-[[1-(methoxymethyl)-2-oxabicyclo[2.1.1]hexan-4-yl]methoxy]-2-methyl-pyrazolo[4,3-f]quinazolin-9-yl]-N,N-dimethyl-4,6,7,8-tetrahydropyrazolo[1,5-a][1,4]diazepine-2-carboxamide] | ≤ 10 | 10 to 100 |  |
| CCc1c(F)ccc2cc(O)cc(-c3c(C)c4nc(OC[C@@]56CCCN5C[C@H](F)C6)nc(N5CCCn6nc(C(=O)N7CCOCC7)cc6C5)c4c4cn(C)nc34)c12 [Example 209, [5-[4-(8-ethyl-7-fluoro-3-hydroxy-1-naphthyl)-7-[[(2R,8S)-2-fluoro-1,2,3,5,6,7-hexahydropyrrolizin-8-yl]methoxy]-2,5-dimethyl-pyrazolo[4,3-f]quinazolin-9-yl]-4,6,7,8-tetrahydropyrazolo[1,5-a][1,4]diazepin-2-yl]-morpholino-methanone] | ≤ 10 | ≤ 10 |  |

Continued, values first:

| IC50 (KRAS G12D) [nM] | IC50 (KRAS WT) [nM] | KRAS^WT NEA (KRAS WT) | Structure (SMILES) |
| --- | --- | --- | --- |
| ≤ 10 | 10 to 100 |  | CCc1c(F)ccc2cc(O)cc(-c3c(F)c4nc(OCC5(CN6CC(F)(F)C6)CC5)nc(N5CCOCC(C)(O)C5)c4c4cn(C)nc34)c12 (centres unmarked) [Example 191, 4-[7-[[1-[(3,3-difluoroazetidin-1-yl)methyl]cyclopropyl]methoxy]-4-(8-ethyl-7-fluoro-3-hydroxy-1-naphthyl)-5-fluoro-2-methyl-pyrazolo[4,3-f]quinazolin-9-yl]-6-methyl-1,4-oxazepan-6-ol] |
| ≤ 10 | ≤ 10 |  | CCc1c(F)ccc2cc(O)cc(-c3c(F)c4nc(OCC5(CN6CC[C@@H](O)C6)CC5)nc(N5CCOCC(C)(O)C5)c4c4cn(C)nc34)c12 (stereo partly drawn) [Example 194, 4-[4-(8-ethyl-7-fluoro-3-hydroxy-1-naphthyl)-5-fluoro-2-methyl-7-[[1-[[(3R)-3-hydroxypyrrolidin-1-yl]methyl]cyclopropyl]methoxy]pyrazolo[4,3-f]quinazolin-9-yl]-6-methyl-1,4-oxazepan-6-ol] |
| ≤ 10 | ≤ 10 |  | CCc1c(F)ccc2cc(O)cc(-c3c(F)c4nc(OC[C@@]56CCCN5C[C@H](F)C6)nc(N5CCCn6nc(C(=O)N7CCCC7)cc6C5)c4c4cn(C)nc34)c12 [Example 197, [5-[4-(8-ethyl-7-fluoro-3-hydroxy-1-naphthyl)-5-fluoro-7-[[(2R,8S)-2-fluoro-1,2,3,5,6,7-hexahydropyrrolizin-8-yl]methoxy]-2-methyl-pyrazolo[4,3-f]quinazolin-9-yl]-4,6,7,8-tetrahydropyrazolo[1,5-a][1,4]diazepin-2-yl]-pyrrolidin-1-yl-methanone] |
| 100 to 10000 | 100 to 10000 |  | CCc1c(F)ccc2cc(O)cc(-c3cc4nc(OC[C@@]56CCCN5C[C@H](F)C6)nc(N5CCCC6(CCC(O)C6)C5)c4c4cn(C)nc34)c12 (stereo partly drawn) [Example 200, 7-[4-(8-ethyl-7-fluoro-3-hydroxy-1-naphthyl)-2-methyl-7-[[(2R,8S)-2-fluoro-1,2,3,5,6,7-hexahydropyrrolizin-8-yl]methoxy]pyrazolo[4,3-f]quinazolin-9-yl]-7-azaspiro[4.5]decan-3-ol] |
| ≤ 10 | 100 to 10000 |  | CCc1c(F)ccc2cc(O)cc(-c3cc4nc(OC[C@@]56CCCN5C[C@H](F)C6)nc(N5CCCC6(COC6)C5)c4c4cn(C)nc34)c12 [Example 201, 5-ethyl-6-fluoro-4-[2-methyl-9-(2-oxa-8-azaspiro[3.5]nonan-8-yl)-7-[[(2R,8S)-2-fluoro-1,2,3,5,6,7-hexahydropyrrolizin-8-yl]methoxy]pyrazolo[4,3-f]quinazolin-4-yl]naphthalen-2-ol] |
| 10 to 100 | 10 to 100 |  | CCc1c(F)ccc2cc(O)cc(-c3cc4nc(OC[C@@]56CCCN5C[C@H](F)C6)nc(N5CC6CCC(C5)C6C#N)c4c4cn(C)nc34)c12 (stereo partly drawn) [Example 210, 3-[4-(8-ethyl-7-fluoro-3-hydroxy-1-naphthyl)-7-[[(2R,8S)-2-fluoro-1,2,3,5,6,7-hexahydropyrrolizin-8-yl]methoxy]-2-methyl-pyrazolo[4,3-f]quinazolin-9-yl]-3-azabicyclo[3.2.1]octane-8-carbonitrile] |
